Values joined by “and” are separate entries in the source; they are usually repeats but may differ in a detail not shown here. Equal values may be shown once.
Experiments:
[1] = tested on: glomerular lesions; renal tubulointerstitial lesions; details: International Publication WO 2004/024185 and 01/72730 pamphlets; cited from earlier work
[2] = tested on: rat unilateral ureteral obstruction release model; experiment: Rat unilateral ureteral obstruction release model: glomerular and tubulointerstitial lesions, Asc-1+ cells; assay type: in vivo, SD rat; details: for Improvement of glomerular lesion: Yes = lesioned glomeruli per 50 glomeruli reduced to less than or equal to half the control average; for Improvement of tubulointerstitial lesion: Yes = reduced to less than or equal to half the control average;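 on Tubulointerstitial lesion: atrophy of tubules associated with dilatation of tubules (score): ± very light + light ++ moderate +++ high change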;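 on Tubulointerstitial lesion: fibrosis of interstitial tissue (score): ± very light + light ++ moderate +++ high change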;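 on Tubulointerstitial lesion: thickness of basement membrane (score): ± very light + light ++ moderate +++ high change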
Description: An experimental model was produced in accordance with the method devised and established by Ishibashi (Michio Ishibasi et al., Japanese Journal of Nephrology 42: 248, 2000), using a 8 to 9-week-old male SD rat weighing about 280 g. […] On day 14 after obstruction, the obstruction was released, and the urinary tract was reconstructed using a cuff. That is, 14 days later, the ligated ureteral obstruction part was partially removed, and a 25 gauge polyethylene tube (made by Nippon Sherwood) as a cuff was inserted from the lower normal ureteral stump and placed in the lumen. Next, the cuff was placed also in the expanded upper ureter, and both parts were ligated for fixation with a 7-0 nylon suture to reconstruct the urinary tract. At the same time, the right kidney was removed. The weight was measured after obstruction release, and the blood was collected on days 2, 5, and 7 after release for serum creatinine determination. On day 7, the rat was sacrificed under anesthesia and the left obstruction release kidney was removed. The weight of the removed kidney was measured, and the kidney pathomorphological examination was performed.
The biological effects of the test compound were studied in vivo using the model obtained in the above procedure 1). The test compound in the form of bulk powder was dissolved in sterilized physiologic saline together with gum arabic, where the concentration of the gum arabic was adjusted to 5% and the concentration of the test compound was adjusted to 30 mg/ml. The amount of 30 mg/kg was subcutaneously administered every day. Daily administration was continued for 21 days during 14 days of obstruction and 7 days after obstruction release. For controlled comparison, the solvent of 5% gum arabic was administered alone.
On day 22 from the administration of the test compound, the rat was sacrificed under anesthesia, and the left obstruction release kidney was removed and neutral formalin fixed. The fixed renal tissue embedded in paraffin was sliced into 4-micrometer-thick pieces for examination.
The tissue section was observed under a microscope in order to count the number of glomeruli and the number of glomeruli having a lesion (expansion of a tubular pole associated with swollen Bowman's capsule epithelial cells or hypertrophy of a Bowman's capsule basal membrane) in the field of view, and the number of glomeruli having the lesion (referred to as “lesioned glomerulus”) per 50 glomeruli was calculated.
As for the effectiveness to improve of glomerular lesions, when the number of lesioned glomeruli per 50 glomeruli was reduced to less than or equal to half the average number of those of the control group, it was determined as improved.
An affinity-purified anti-rat Asc-1 polyclonal antibody (rabbit) was prepared as follows: that is, in order to prepare an anti-Asc-1 peptide polyclonal antibody (rabbit), an oligopeptide (PSPLPITDKPLKTQC (SEQ. ID NO: 4)) corresponding to amino acid residues of 517-530 of Asc-1 was synthesized (see J Biol Chem (2000); 275: 9690-9698), keyhole limpet hemocyanine was bound to the C-terminal cysteine as an adjuvant, and […] was immunized therewith. The serum was collected on days 7 and 14 from the immunization. The serum was concentrated by means of an adsorption-dissociation operation using an affinity column to which an oligopeptide corresponding to amino acid residues of 517-530 of Asc-1 was bound in order to obtain an affinity-purified antibody having a protein content of 0.5 mg/ml. As for immunopathological examination, paraffin rat […] diluted with PBS to the optimal concentration was used.
The immune tissue staining was performed based on the protocol of Ventana HX system bench mark (Ventana Japan K.K., Tokyo) including the automated immunostaining device manufactured by Ventana Japan K.K. After deparaffinization, the tissue section was heat-treated at 100° C. for 1 hour. […]

4F2hc [3] = experiment: HAT heavy chain 4F2hc on large-monocyte fraction of LPS-stimulated human PBMC, peak value by FACScan (polyclonal antibody); assay type: cell-based
Description: (§1) In the same manner as in 1) to 5) of Experimental Example 1, to human peripheral blood mononuclear cells, the test compound (6-2) (final concentration: 10 nM) or the test compound (7-3) (final concentration: 100 nM) was added at the same time when LPS (final concentration: 80 μg/ml) was added, followed by 6-day culture. Further, in the same manner as above, using rabbit anti-human 4F2hc polyclonal antibodies (see Biol Pharm Bull 30:415-422, 2007) as a primary antibody, the peak value of HAT expressed on the fraction of large-macrophages (larger than monocyte macrophages) in human PBMC was measured by FACScan using a commercially available cell fix/cell membrane infiltration kit (trade name: BD Cytofix/Cytoperm™ Kit, catalog No. 554714, BD Biosciences).
(§2) As a control, the one with no test-compound addition was used, and as a rabbit anti-human rBAT (related to b^0,+-type amino acid transporter) polyclonal antibody, the one obtained by coupling a synthesized peptide composed of an amino-terminal of human rBAT (MAEDKSKRDSIEMSMKGC (SEQ ID NO: 2)) and a carboxyl-terminal of mouse b^0,+AT (BAT1) (CHLQMLEWPEKDPE (SEQ ID NO: 3)) to a carrier KLH (keyhole-limpet hemocyanin), and immunizing a rabbit with it.

FRP-1/CD98/4F2hc = experiment: FACScan of FRP-1/CD98/4F2hc expression on macrophage fraction of LPS-stimulated human PBMC (monoclonal antibodies 4-5-1, 6-1-3, HBJ-127); assay type: cell-based
rBAT = experiment: HAT heavy chain rBAT on large-monocyte fraction of LPS-stimulated human PBMC, peak value by FACScan; assay type: cell-based; details: human PBMC + LPS 80 μg/ml, 6-day culture; test compound 100 nM; solvent control 37
Description: as §1, §2

4F2hc [4] = experiment: 4F2hc on large-cell fraction of LPS-stimulated THP-1, peak value by FACScan; assay type: cell-based, human
Description: The same procedures as in Experimental Example 2 were taken except the following conditions: human leukemia culture cell line THP-1 was used instead of the human peripheral blood mononuclear cells; the final addition concentration of the test compound (6-2) was set to 100 nM, and the final addition concentration of the test compound (7-3) was set to 1000 nM; and fetal bovine serum was used instead of the human AB serum. The peak value of HAT expressed on the fraction of large-cells in human leukemia culture cell strain THP-1, compared with those not stimulated with LPS, was measured. As a control, the one with no test-compound addition was used, and the peak value of HAT was measured by FACScan using a commercially available cell fix/cell membrane infiltration kit (trade name: BD Cytofix/Cytopem™ Kit, catalog No. 554714, BD Bioscience).

[5] = group average ± standard deviation
[6] = individual animal, 30 mg/kg s.c. daily for 21 days, 30 mg/kg
[7] = individual animal, points: ± 0.5, + 1, ++ 2, +++ 3
[8] = individual animal, sum of the three scores
[9] = human PBMC + LPS 80 μg/ml, 6-day culture, test compound 100 nM

Row | Structure (SMILES) | Glomerular lesion: number of lesioned glomeruli per 50 glomeruli, expansion of tubular pole associated with swollen Bowman's capsule epithelial cells [2, 5] | Glomerular lesion: number of lesioned glomeruli per 50 glomeruli, hypertrophy of Bowman's capsule basal membrane [2, 5] | Number of Asc-1+ cells per 50 glomeruli [2, 5] | Tubulointerstitial lesion: atrophy of tubules associated with dilatation of tubules (score) [2, 5] | Tubulointerstitial lesion: fibrosis of interstitial tissue (score) [2, 5] | Tubulointerstitial lesion: thickness of basement membrane (score) [2, 5] | Tubulointerstitial lesion: total score [2, 5] | Glomerular lesion: number of lesioned glomeruli per 50 glomeruli, expansion of tubular pole associated with swollen Bowman's capsule epithelial cells [2, 6] | Glomerular lesion: number of lesioned glomeruli per 50 glomeruli, hypertrophy of Bowman's capsule basal membrane [2, 6] | Number of Asc-1+ cells per 50 glomeruli [2, 6] | Improvement of glomerular lesion ([2]; individual animal) | Improvement of tubulointerstitial lesion ([2]; individual animal) | Tubulointerstitial lesion: atrophy of tubules associated with dilatation of tubules (score) [2, 7] | Tubulointerstitial lesion: fibrosis of interstitial tissue (score) [2, 7] | Tubulointerstitial lesion: thickness of basement membrane (score) [2, 7] | Tubulointerstitial lesion: total score [2, 8] | known action on renal tubulointerstitial lesions [1] | other results
1 | C[C@@H](OC[C@@]1(Oc2ccc(F)cc2)CCC(=O)O1)c1ccc2ccccc2c1 [(3-2)] | 6 ± 3 per 50 glomeruli | 6 ± 1 per 50 glomeruli | 11.06 ± 3.51 per 50 glomeruli | 2.6 ± 0.9 | 2.2 ± 0.4 | 2.2 ± 0.4 | 7.0 ± 1.2 | 10 per 50 glomeruli and 6 per 50 glomeruli (2×) and 5 per 50 glomeruli and 3 per 50 glomeruli | 6 per 50 glomeruli and 5 per 50 glomeruli (2×) and 8 per 50 glomeruli and 7 per 50 glomeruli | 9.48 per 50 glomeruli and 9.55 per 50 glomeruli and 14.91 per 50 glomeruli and 6.84 per 50 glomeruli and 14.52 per 50 glomeruli | Yes | No | 3 (4×) and 1 | 2 (4×) and 3 | 2 (4×) and 3 | 7 (2×) and 8 (2×) and 5 |  | known action on glomerular lesions [1]: selectively inhibit the glomerular lesions
2 | C[C@@H](OC[C@]1(Oc2ccc(F)cc2)CCC(=O)O1)c1ccc2ccccc2c1 [(4-2)] | 11 ± 6 per 50 glomeruli | 18 ± 9 per 50 glomeruli | 4.03 ± 3.06 per 50 glomeruli | 1.0 ± 0 | 1.5 ± 0.6 | 0.9 ± 0.3 | 3.4 ± 0.5 | 16 per 50 glomeruli (2×) and 6 per 50 glomeruli and 7 per 50 glomeruli | 29 per 50 glomeruli and 9 per 50 glomeruli and 20 per 50 glomeruli and 13 per 50 glomeruli | 1.81 per 50 glomeruli and 7.39 per 50 glomeruli and 5.83 per 50 glomeruli and 1.10 per 50 glomeruli | No (2×) and Yes (2×) | No and Yes (3×) | 1 | 2 (2×) and 1 (2×) | 1 (3×) and 0.5 | 4.0 and 3.5 and 3.0 (2×) | selectively inhibit the renal tubulointerstitial lesions | 
3 | O=C1OC(Cl)(C(=O)OCc2ccccc2)c2ccccc21 (stereo not shown) [Compound (7-3)] | 5 ± 3 per 50 glomeruli | 14 ± 5 per 50 glomeruli | 0.90 ± 0.47 per 50 glomeruli | 0.50 ± 0.4 | 0.5 ± 0 | 0.4 ± 0.3 | 1.4 ± 0.6 | 9 per 50 glomeruli and 1 per 50 glomeruli and 6 per 50 glomeruli and 4 per 50 glomeruli | 20 per 50 glomeruli and 10 per 50 glomeruli and 16 per 50 glomeruli and 11 per 50 glomeruli | 1.35 per 50 glomeruli and 0.47 per 50 glomeruli and 1.27 per 50 glomeruli and 0.53 per 50 glomeruli | No (2×) and Yes (2×) |  | 0.5 (2×) and 0 and 1 | 0.5 | 0.5 (3×) and 0 | 1.5 (2×) and 0.5 and 2 | selectively inhibit the renal tubulointerstitial lesions | Change in HAT expressed on large-monocyte fraction of human PBMC (peak value by FACScan), 4F2hc (4F2hc [3]; human PBMC + LPS 80 μg/ml, 6-day culture, test compound 100 nM, solvent control 23): 20; amount of 4F2hc in the heavy chain of HAT (in words) (4F2hc [3]; human PBMC + LPS, summary of Table 2): did not show any effects; Migration of FRP-1/CD98/4F2hc expression of macrophage fraction by FACScan (migration rate %), monoclonal antibody 4-5-1 (FRP-1) (FRP-1/CD98/4F2hc; [9]): 2.6%; Migration of FRP-1/CD98/4F2hc expression of macrophage fraction by FACScan (migration rate %), monoclonal antibody 6-1-3 (FRP-1) (FRP-1/CD98/4F2hc; [9]): 2.0%; Migration of FRP-1/CD98/4F2hc expression of macrophage fraction by FACScan (migration rate %), monoclonal antibody HBJ-127 (CD98) (FRP-1/CD98/4F2hc; [9]): 5.4%; expression of FRP-1/CD98/4F2hc on macrophage fraction of human PBMC (in words) (FRP-1/CD98/4F2hc; stimulated and cultured with LPS, summary of Table 1): did not increase the expression; Change in HAT expressed on large-monocyte fraction of human PBMC (peak value by FACScan), rBAT (rBAT): 38; Change in HAT expressed on large-cell fraction of THP-1 (peak value by FACScan), 4F2hc (4F2hc [4]; THP-1 + LPS 80 μg/ml, fetal bovine serum, test compound 1000 nM, solvent control 12): 11; amount of 4F2hc in the heavy chain of HAT (in words) (4F2hc [4]; THP-1 + LPS, summary of Table 3): did not make any change; amelioration / reduction of tubulointerstitial lesions, rats of the group ([2]; control group: one rat out of four): all of four rats; Asc-1 positive cells in the glomeruli (in words) ([2]; versus control group): only a small number
